Experimental data from patent publication US12059405B1, “3-(2,4,5-tris(4-chlorophenyl)-1H-imidazol-1-yl) propanoic acid as an antimicrobial compound” (KING FAISAL UNIVERSITY, priority 2023, dated 2024).

Columns and labels:
Assay type in all cases: cell-based
Aspergillus flavus = assay: Agar plate disc-diffusion, antifungal, Aspergillus flavus; settings: Sabouraud's dextrose agar, 37° C., 72 hours, DMSO control zone subtracted
Method: (§1) The agar plate disc-diffusion method was applied. […] The discs were then placed onto the surface of agar plates (nutrient agar for bacteria and Sabouraud's dextrose agar for fungi) seeded with the test organism. Each plate contained 15 mL of the agar medium, previously seeded with 0.2 mL of the broth culture of each organism pregrown for 18 hours. The plates were incubated at 37° C. for 48 hours, and 72 hours for fungi. The inhibition zones was measured in mm. Discs impregnated with DMSO were used as a control, and its inhibition zone was subtracted from the tested compound actual inhibition zone.

[1] = system: Chrysosporium keratinophilum; assay: Agar plate disc-diffusion, antifungal, Chrysosporium keratinophilum; settings: Sabouraud's dextrose agar, 37° C., 72 hours, DMSO control zone subtracted
Method: as §1

Staphylococcus aureus = assay: Agar plate disc-diffusion, antibacterial, Staphylococcus aureus; settings: nutrient agar, 37° C., 48 hours, DMSO control zone subtracted
Method: as §1

Escherichia coli = assay: Agar plate disc-diffusion, antibacterial, Escherichia coli; settings: nutrient agar, 37° C., 48 hours, DMSO control zone subtracted
Method: as §1

Bacillus cereus = assay: Agar plate disc-diffusion, antibacterial, Bacillus cereus; settings: nutrient agar, 37° C., 48 hours, DMSO control zone subtracted
Method: as §1

Pseudomonas aeruginosa = assay: Agar plate disc-diffusion, antibacterial, Pseudomonas aeruginosa; settings: nutrient agar, 37° C., 48 hours, DMSO control zone subtracted
Method: as §1

[2] = A = concentration of comp. = 10,000 μL
[3] = B = concentration of comp. = 30,000 μL
[4] = C = concentration of comp. = 50,000 μL

O=C(O)CCn1c(-c2ccc(Cl)cc2)nc(-c2ccc(Cl)cc2)c1-c1ccc(Cl)cc1 [V, 3-(2,4,5-tris(4-chlorophenyl)-1H-imidazol-1-yl)propanoic acid]
inhibition zone, Aspergillus flavus, A (Aspergillus flavus; [2]): 19 mm
inhibition zone, Aspergillus flavus, B (Aspergillus flavus; [3]): 24 mm
inhibition zone, Aspergillus flavus, C (Aspergillus flavus; [4]): 32 mm
inhibition zone, Chrysosporium keratinophilum, A [1, 2]: 25 mm
inhibition zone, Chrysosporium keratinophilum, B [1, 3]: 26 mm
inhibition zone, Chrysosporium keratinophilum, C [1, 4]: 45 mm
inhibition zone, Staphylococcus aureus, A (Staphylococcus aureus; [2]): 19 mm
inhibition zone, Staphylococcus aureus, B (Staphylococcus aureus; [3]): 23 mm
inhibition zone, Staphylococcus aureus, C (Staphylococcus aureus; [4]): 36 mm
inhibition zone, Escherichia coli, A (Escherichia coli; [2]): 27 mm
inhibition zone, Escherichia coli, B (Escherichia coli; [3]): 36 mm
inhibition zone, Escherichia coli, C (Escherichia coli; [4]): 48 mm
inhibition zone, Bacillus Cereus, A (Bacillus cereus; [2]): 21 mm
inhibition zone, Bacillus Cereus, B (Bacillus cereus; [3]): 29 mm
inhibition zone, Bacillus Cereus, C (Bacillus cereus; [4]): 38 mm
inhibition zone, Pseudomonas aeruginosa, A (Pseudomonas aeruginosa; [2]): 25 mm
inhibition zone, Pseudomonas aeruginosa, B (Pseudomonas aeruginosa; [3]): 26 mm
inhibition zone, Pseudomonas aeruginosa, C (Pseudomonas aeruginosa; [4]): 37 mm
